Test results taken from publication doi:10.64898/2025.12.27.696692v1, “A coelenterazine-dependent luciferase from the deep-sea coral Anthoptilum murrayi Kölliker, 1880 (Cnidaria: Octocorallia: Pennatulacea)” (biorxiv, 2025).

System: T1, AnmLuc (recombinant Anthoptilum murrayi luciferase)
T1 construct: codon-optimised, pET-28a(+), N-terminal His6 (no cleavage told); E. coli ArcticExpress (DE3), Ni-NTA
Assay: luminometry, Michaelis-Menten nonlinear fit
Format: biochemical
Conditions: 50 mM sodium phosphate pH 7.5, 25 °C; coelenterazine 0.04–50 µM

Km: 3.39 µM
Structure (SMILES): Oc1ccc(Cc2nc3c(Cc4ccccc4)nc(-c4ccc(O)cc4)cn3c2O)cc1 [coelenterazine]
